# According to patent publication US20200061047A1, “NEW USE OF RIFAMYCIN-QUINOLIZIDONE DUAL-ACTION MOLECULE” (TenNor Therapeutics Limited, priority 2017, published 2020):
# Where two headings read alike, the source gives them in different places.
# What was measured:
# Assay type in all cases: cell-based
# [1] = system: Corynebacterium urealyticum JMI 2015_30; assay: MIC, agar dilution drug sensitivity test; details: Aerobic
# [2] = system: Bacteroides vulgatus JMI 927011; assay: MIC, agar dilution drug sensitivity test; details: Phocaeicola vulgatus, JMI927011
# [3] = system: Yersinia enterocolitica ATCC 23715; assay: MIC, agar dilution drug sensitivity test; details: ATCC23715, Table 1
# [4] = system: Bordetella avium ATCC 6945; assay: MIC, agar dilution drug sensitivity test; details: Bordetella avium, ATCC6945, Bordetella avium ATCC 6945, read-out: MIC
# [5] = system: Haemophilus influenzae ATCC 49247; assay: MIC, microscale broth dilution drug sensitivity test
# Description: (§1) In this embodiment, compound I-rifamycin-quinolizidone dual-action molecule is used in a drug sensitivity test on pathogenic bacteria associated with hepatic encephalopathy, the pathogenic bacteria including the above ammonia-producing bacteria. Except that Haemophilus is tested using the microscale broth dilution method, all the other bacteria are tested using the agar dilution method consistent with that in the Guideline of the Clinical and Laboratory Standards Institute (CLSI; 1-3). All the other drug susceptibility tests are performed under anaerobic conditions except that some selective isolates are tested under both aerobic and anaerobic conditions. Control compounds include metronidazole, rifampicin, clindamycin (under anaerobic conditions) and ciprofloxacin (under aerobic and anaerobic conditions). The tested clinical isolates may be reference strains obtained from American Type Culture Collection, ATCC, Manassas, Va. After being received, the strains are respectively inoculated on appropriate agar plates and placed under optimized conditions for growth. The growing strains are cloned in the broth containing cryoprotectant to prepare bacterial suspensions, and the bacterial suspensions are subpackaged and then stored in freezing at −80° C. Before test, the frozen bacteria are inoculated into appropriate agar dishes and cultured for growth. Anaerobic bacteria grow for 48 hours at 35° C. in a Bactron II oxygen-free cabinet (Shel Lab, Cornelius, Oreg.) before test. Haemophilus Test Medium (HTM, Teknova, Hollister, Calif.; Art. No.: 895120) is used to perform drug sensitivity test on Hemophilus using the microscale broth dilution method under aerobic and anaerobic conditions. Preparation and storage of all the above broths are performed in accordance with CLSI (1-3).
# [6] = system: Haemophilus parainfluenzae ATCC 49247; assay: as above; details: ATCC49247; Haemophilus parainfluenzae ATCC 49247; Aerobic; read-out: MIC
# Description: as §1
# [7] = system: Morganella morganii MMX 6123; assay: MIC, agar dilution drug sensitivity test; details: MMX6123, Table 1
# [8] = system: Clostridium difficile ATCC 700057; assay: MIC, agar dilution drug sensitivity test; details: Clostridioides difficile, ATCC700057
# [9] = system: Clostridium perfringens ATCC 13124; assay: microbe, parasite or virus in culture; details: ATCC13124
# [10] = ATCC49247, Haemophilus influenzae ATCC 49247, Aerobic
# [11] = ATCC49247, Haemophilus influenzae ATCC 49247, Anaerobic
SMILES,MIC [1],MIC [2],MIC [3],MIC ([4]; Aerobic),MIC ([4]; Anaerobic),"MIC [5, 10]","MIC [5, 11]",MIC [6],MIC [7],MIC [8],MIC [9]
"O=C(O)c1cn(C2CC2)c2cc(N3CCNCC3)c(F)cc2c1=O [Ciprofloxacin, ciprofloxacin]",> 16 µg/mL,> 16 µg/mL,0.015 µg/mL,1 µg/mL,2 µg/mL,≤ 0.12 µg/mL,≤ 0.12 µg/mL,≤ 0.12 µg/mL,1 µg/mL,,
"CO[C@H]1/C=C/O[C@@]2(C)Oc3c(C)c(O)c4c(O)c(c(/C=N/N5CCC(N(C)C6([C@@H]7CCN(c8c(F)cn9c(=O)c(C(=O)O)cc(C%10CC%10)c9c8C)C7)CC6)CC5)c(O)c4c3C2=O)NC(=O)/C(C)=C\C=C\[C@H](C)[C@H](O)[C@@H](C)[C@@H](O)[C@@H](C)[C@H](OC(C)=O)[C@@H]1C [Compound I, (R)-3-[(4-{1-[1-(3-carboxy-1-cyclopropyl-7-fluoro-9-methyl-4-oxo-4H-quinolizine-8-yl)-pyrrolidin-3-yl-cyclopropyl]-methylamino}-piperidin-1-ylimino)-methylene]-rifamycin SV]",0.03 µg/mL,16 µg/mL,0.12 µg/mL,4 µg/mL,> 64 µg/mL,0.12 µg/mL,0.12 µg/mL,0.25 µg/mL,16 µg/mL,0.004 µg/mL,0.03 µg/mL
